Earlier results as cited in EP0435915B1, “COMPOSITIONS FOR THE TREATMENT OF LEISHMANIASIS” (priority 1988, dated 1990).

Test system: leishmaniasis lesions
Conditions: reported by GB-A-2117237; result in words

For `NC[C@@H]1O[C@H](O[C@H]2[C@@H](O)[C@H](O[C@@H]3[C@@H](O)[C@H](N)C[C@H](N)[C@H]3O[C@H]3O[C@H](CO)[C@@H](O)[C@H](O)[C@H]3N)O[C@@H]2CO)[C@H](N)[C@@H](O)[C@@H]1O` [paromomycin, 0-2,6-diamino-2,6-dideoxy-β-L-idopyranosyl-(1→3)-0-β-D-ribofuranosyl-(1→5)-0-[2-amino-2-deoxy-α-D-glucopyranosyl-(1→4)]-2-deoxystreptamine], the “effect when applied topically to leishmaniasis lesions” value is listed as “ineffective”.
